For one assay, the system named is HDAC. Put plainly: HDAC fluorimetric assay kit (AK-500, Biomol), HeLa nuclear extract. The format is biochemical. The method, then: HDAC inhibitors were screened using an HDAC fluorimetric assay kit (AK-500, Biomol, Plymouth Meeting, Pa.). […] Each assay was setup as follows: Defrosted all kit components and kept on ice until use. Diluted HeLa nuclear extract 1:29 in Assay Buffer (50 mM Tris/Cl, pH 8.0, 137 mM NaCl, 2.7 mM KCl, 1 mM MgCl2). Prepared dilutions of Trichostatin A (TSA, positive control) and tested compounds in assay buffer (5× of final concentration). Diluted Fluor de LysTM Substrate in assay buffer to 100 uM (50 fold=2× final). Diluted Fluor de LysTM developer concentrate 20-fold (e.g. 50 μl plus 950 μl Assay Buffer) in cold assay buffer. Second, diluted the 0.2 mM Trichostatin A 100-fold in the 1× Developer (e.g. 10 μl in 1 ml; final Trichostatin A concentration in the 1× Developer=2 μM; final concentration after addition to HDAC/Substrate reaction=1 μM). Added Assay buffer, diluted trichostatin A or test inhibitor to appropriate wells of the microtiter plate. Added diluted HeLa extract or other HDAC sample to all wells except for negative controls. Allowed diluted Fluor de LysTM Substrate and the samples in the microtiter plate to equilibrate to assay temperature (e.g. 25 or 37° C. Initiated HDAC reactions by adding diluted substrate (25 μl) to each well and mixing thoroughly. Allowed HDAC reactions to proceed for 1 hour and then stopped them by addition of Fluor de LysTM Developer (50 μl). Incubated plate at room temperature (25° C.) for 10-15 min. Read samples in a microtiter-plate reading fluorimeter capable of excitation at a wavelength in the range 350-380 nm and detection of emitted light in the range 440-460 nm.

The target in the next assay is T1, CDK3/cyclinE (Homo sapiens, UniProt Q00526).
T1 construct: C-terminal 6His-tagged recombinant human full-length cdk3 (MW=36 kDa); 6His (C); made in house; host or cells: Sf21 insect cells (baculovirus)
T1 sequence (Q00526 whole entry): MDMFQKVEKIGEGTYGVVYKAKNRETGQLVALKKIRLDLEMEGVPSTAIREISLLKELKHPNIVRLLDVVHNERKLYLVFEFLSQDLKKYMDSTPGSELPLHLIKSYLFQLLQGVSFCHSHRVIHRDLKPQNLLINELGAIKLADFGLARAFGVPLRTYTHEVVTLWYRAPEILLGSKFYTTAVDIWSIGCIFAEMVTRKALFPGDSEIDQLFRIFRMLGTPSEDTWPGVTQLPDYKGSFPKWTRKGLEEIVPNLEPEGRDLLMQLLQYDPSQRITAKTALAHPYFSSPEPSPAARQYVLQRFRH
T1 sequence (P24864 whole entry partner): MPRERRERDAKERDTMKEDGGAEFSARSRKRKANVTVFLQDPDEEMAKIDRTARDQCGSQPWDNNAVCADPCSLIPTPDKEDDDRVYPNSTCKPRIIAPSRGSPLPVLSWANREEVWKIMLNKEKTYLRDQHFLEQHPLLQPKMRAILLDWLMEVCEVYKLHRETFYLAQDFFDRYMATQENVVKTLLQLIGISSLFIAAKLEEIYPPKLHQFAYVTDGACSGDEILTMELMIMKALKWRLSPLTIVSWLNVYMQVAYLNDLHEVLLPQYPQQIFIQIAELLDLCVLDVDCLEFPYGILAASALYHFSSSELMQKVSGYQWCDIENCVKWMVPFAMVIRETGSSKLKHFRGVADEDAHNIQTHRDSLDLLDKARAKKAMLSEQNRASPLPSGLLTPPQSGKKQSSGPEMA
As to the kind of experiment: CDK activity assay with p33 ATP, CDK3/cyclinE. The format is biochemical. The note with it: 1 μM ATP. Here is the method: CDK3/cyclinE (Accession Number for CDK3; GenBank X66357, for Cyclin E; GenBank NM_001238):
C-terminal 6His-tagged recombinant human full-length cdk3 (MW=36 kDa) were coexpressed with N-terminal GST-tagged recombinant human full-length cyclin E (MW=74 kDa) with baculovirus system in Sf21 insect cells. Recombinant protein complex was purified using Ni2+/NTA agarose and with purity to be 66% by SDS PAGE and Coomassie blue staining. Specific Activity of recombinant enzyme was measured to be 861 U/mg, where one unit of cdk3/cyclinE activity is defined as 1 nmol phosphate incorporated into 0.1 mg/ml histone H1 per minute at 30° C. with a final ATP concentration of […]. Enzyme was stored at a concentration of 0.1 mg/ml in 50 mM Tris/HCl pH7.5, 150 mM NaCl 0.1 mM EGTA, 0.03% Brij 35, 270 mM sucrose, 1 mM benzamidine, 0.2 mM PMSF, 0.1% 2-mercaptoethanol.

The target in a further assay is T2, CDK4/cyclinD1 (Homo sapiens, UniProt P11802).
T2 construct: Recombinant Human Full-length GST-tagged CDK-4 (MW=61.8 kDa) and cyclinD1 (MW=61.2 kDa); GST; made in house; host or cells: insect cells
T2 sequence (P11802 whole entry): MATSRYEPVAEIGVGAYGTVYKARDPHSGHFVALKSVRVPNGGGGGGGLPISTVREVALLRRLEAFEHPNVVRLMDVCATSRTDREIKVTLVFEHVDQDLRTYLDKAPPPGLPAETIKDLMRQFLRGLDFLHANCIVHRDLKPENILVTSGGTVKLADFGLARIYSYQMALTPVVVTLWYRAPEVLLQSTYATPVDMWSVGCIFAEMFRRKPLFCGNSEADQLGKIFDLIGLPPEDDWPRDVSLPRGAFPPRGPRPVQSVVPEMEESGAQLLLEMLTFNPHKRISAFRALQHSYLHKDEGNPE
T2 sequence (P24385 whole entry partner): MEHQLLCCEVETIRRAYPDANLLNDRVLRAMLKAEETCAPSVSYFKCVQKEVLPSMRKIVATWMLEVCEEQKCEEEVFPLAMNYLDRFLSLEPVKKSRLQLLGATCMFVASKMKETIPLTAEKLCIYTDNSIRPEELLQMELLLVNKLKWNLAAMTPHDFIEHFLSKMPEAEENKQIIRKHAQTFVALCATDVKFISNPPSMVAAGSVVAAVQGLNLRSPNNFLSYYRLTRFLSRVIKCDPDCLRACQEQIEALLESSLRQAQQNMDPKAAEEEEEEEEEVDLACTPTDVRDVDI
Put plainly: CDK activity assay with p33 ATP, CDK4/cyclinD1. The format is biochemical. The note with it: 1 μM ATP. The method, then: Recombinant Human Full-length GST-tagged CDK-4 (MW=61.8 kDa) and cyclinD1 (MW=61.2 kDa) were expressed in insect cells. […] Activity was determined at a final protein concentration at 8.33 μg/mL.
RBC-CTF (Substrate for CDK4):
Human RB protein (S773-K928, MW=44.46 kDa), N-terminal GST-tagged was purified and followed with a factor Xa cleavage, which was performed in 4 mM concentration of glutathione, Purified protein was stocked at a concentration of 0.67 mg/ml.
2 nM CDK4/cyclinD1 and 1 μM RB-CTF were mixed in the reaction buffer with final concentration of 1 μM ATP and 1% DMSO.

A further assay deals with T3, CDK6/cyclinD3 (Homo sapiens, UniProt Q00534).
T3 construct: N-terminal, 6His-tagged full-length human cdk6 (MW=38 kDa); 6His (N); made in house; host or cells: Sf21 cells
T3 sequence (Q00534 whole entry): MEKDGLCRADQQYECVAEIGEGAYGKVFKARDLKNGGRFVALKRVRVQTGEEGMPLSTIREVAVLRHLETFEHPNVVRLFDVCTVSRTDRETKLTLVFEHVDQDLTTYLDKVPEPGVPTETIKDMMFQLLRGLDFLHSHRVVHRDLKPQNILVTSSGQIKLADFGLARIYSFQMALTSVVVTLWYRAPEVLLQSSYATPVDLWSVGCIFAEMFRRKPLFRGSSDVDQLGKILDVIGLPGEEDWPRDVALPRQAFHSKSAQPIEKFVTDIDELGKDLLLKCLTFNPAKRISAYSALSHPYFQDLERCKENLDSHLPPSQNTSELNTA
T3 sequence (P30281 whole entry partner): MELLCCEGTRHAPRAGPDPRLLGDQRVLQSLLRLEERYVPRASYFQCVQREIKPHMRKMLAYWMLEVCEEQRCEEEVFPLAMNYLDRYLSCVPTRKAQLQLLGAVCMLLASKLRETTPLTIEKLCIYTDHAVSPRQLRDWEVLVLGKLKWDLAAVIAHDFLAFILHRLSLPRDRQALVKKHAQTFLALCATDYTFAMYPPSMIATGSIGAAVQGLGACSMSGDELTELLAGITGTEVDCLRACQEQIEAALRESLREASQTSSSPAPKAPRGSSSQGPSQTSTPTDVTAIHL
As to the kind of experiment: CDK activity assay with p33 ATP, CDK6/cyclinD3. The format is biochemical. To be noted: 1 μM ATP; read-out: CDK6/cyclinD IC50. Here is the method: CDK6/cyclinD3 (Accession Number for CDK6; GenBank X66365, for Cyclin D3; EMBL M90814):
N-terminal, 6His-tagged full-length human cdk6 (MW=38 kDa) complexed with N-terminal GST-tagged full-length human cyclin D3 (MW=59 kDa) were expressed in Sf21 cells. Recombinant protein complex was purified using glutathione-agarose and activated with CAK, and repurified with Ni2+/NTA-agarose column. Purity was measured to be at least 68%. Specific Activity was measured to be 39 U/mg, where one unit of cdk6/cyclinD3 activity is defined as 1 nmol phosphate incorporated into 0.1 mg/ml histone H1 per minute at 30° C. with a final ATP concentration of 100 μM. Enzyme was stored at concentration of 0.1 mg/ml in 50 mM Tris-HCl, pH 7.5, 270 mM sucrose, 150 mM NaCl, 1 mM benzamidine, 0.2 mM PMSF, 0.1% 2-mercaptoethanol, 0.1 mM EGTA, 0.03% Brij 35.

For another assay, the target named is CDK7/cyclinH1/MNAT1 (Homo sapiens, UniProt P50613). As to the kind of experiment: CDK activity assay with p33 ATP, CDK7/cyclinH1/MNAT1.
CDK7/cyclinH1/MNAT1, sequence (P50613 whole entry): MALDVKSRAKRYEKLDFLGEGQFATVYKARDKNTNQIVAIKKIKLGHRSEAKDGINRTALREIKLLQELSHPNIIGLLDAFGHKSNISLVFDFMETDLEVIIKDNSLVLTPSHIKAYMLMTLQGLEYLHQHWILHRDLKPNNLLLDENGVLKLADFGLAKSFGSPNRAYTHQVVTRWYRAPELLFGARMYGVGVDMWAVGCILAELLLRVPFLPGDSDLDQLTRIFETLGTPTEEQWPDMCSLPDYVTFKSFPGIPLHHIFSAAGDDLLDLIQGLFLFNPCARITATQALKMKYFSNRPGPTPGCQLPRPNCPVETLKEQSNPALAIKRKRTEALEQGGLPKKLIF
CDK7/cyclinH1/MNAT1, sequence (P51946 whole entry partner): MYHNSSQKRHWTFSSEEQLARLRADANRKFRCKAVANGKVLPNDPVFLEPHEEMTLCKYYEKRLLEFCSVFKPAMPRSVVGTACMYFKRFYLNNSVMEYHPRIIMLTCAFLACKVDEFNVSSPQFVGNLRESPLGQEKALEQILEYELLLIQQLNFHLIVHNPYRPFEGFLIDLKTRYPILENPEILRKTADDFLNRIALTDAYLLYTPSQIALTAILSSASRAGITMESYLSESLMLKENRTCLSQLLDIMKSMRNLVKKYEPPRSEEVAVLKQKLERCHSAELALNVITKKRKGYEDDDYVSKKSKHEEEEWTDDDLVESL
CDK7/cyclinH1/MNAT1, sequence (P51948 whole entry partner): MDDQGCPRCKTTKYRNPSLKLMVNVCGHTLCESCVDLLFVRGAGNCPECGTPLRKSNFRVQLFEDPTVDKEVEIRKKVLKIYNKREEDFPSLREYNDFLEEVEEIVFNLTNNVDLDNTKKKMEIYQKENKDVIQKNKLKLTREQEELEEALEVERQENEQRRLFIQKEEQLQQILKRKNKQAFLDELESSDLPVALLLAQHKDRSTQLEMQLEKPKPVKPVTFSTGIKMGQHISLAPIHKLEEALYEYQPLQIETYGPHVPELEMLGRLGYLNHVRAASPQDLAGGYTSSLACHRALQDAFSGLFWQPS
The target of another assay is T4, CDK1/cyclinB (Homo sapiens, UniProt P06493).
T4 construct: C-terminal 6His-tagged human full length cdk1 (MW=35 kDa); 6His (C); made in house; host or cells: Sf21 insect cells (baculovirus)
T4 sequence (P06493 whole entry): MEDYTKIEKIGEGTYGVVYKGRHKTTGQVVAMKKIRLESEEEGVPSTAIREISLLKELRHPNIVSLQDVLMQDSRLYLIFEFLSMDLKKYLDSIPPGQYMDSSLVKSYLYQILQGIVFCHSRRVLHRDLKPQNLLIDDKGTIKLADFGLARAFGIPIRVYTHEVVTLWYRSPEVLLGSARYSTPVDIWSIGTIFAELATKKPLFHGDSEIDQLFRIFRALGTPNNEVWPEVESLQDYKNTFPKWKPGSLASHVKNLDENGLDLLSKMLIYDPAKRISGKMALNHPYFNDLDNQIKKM
T4 sequence (P14635 whole entry partner): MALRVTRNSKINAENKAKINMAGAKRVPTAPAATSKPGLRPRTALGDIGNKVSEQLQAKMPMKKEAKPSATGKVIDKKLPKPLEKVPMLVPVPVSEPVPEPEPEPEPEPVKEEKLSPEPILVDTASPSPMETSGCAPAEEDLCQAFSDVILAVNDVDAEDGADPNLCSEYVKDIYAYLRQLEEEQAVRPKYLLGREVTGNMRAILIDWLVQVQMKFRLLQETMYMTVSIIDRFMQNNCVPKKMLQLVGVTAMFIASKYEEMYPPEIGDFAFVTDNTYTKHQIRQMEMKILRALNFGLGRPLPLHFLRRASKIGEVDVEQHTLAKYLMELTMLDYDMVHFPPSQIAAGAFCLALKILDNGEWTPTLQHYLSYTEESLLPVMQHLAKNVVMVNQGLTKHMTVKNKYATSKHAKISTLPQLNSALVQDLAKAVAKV
As to the kind of experiment: CDK activity assay with p33 ATP, CDK1/cyclinB. The format is biochemical. The note with it: 1 μM ATP. The text has this:
CDK1/cyclinB (Accession Number for CDK1; GenBankNM_001786, for cyclinB; EMBL M25753):
C-terminal 6His-tagged human full length cdk1 (MW=35 kDa), and N-terminal GST-tagged human full length cyclin B (MW=75 kDa) were expressed individually with baculovirus system in Sf21 insect cells. Recombinant proteins were purified using Ni2+/NTA-agarose and GST-agarose, respectively. The cdk1 was then activated using CAK and repurified by Q Sepharose and Ni2+/NTA-agarose. They were then mixed in vitro to form protein complex. The purity of these protein complex was estimated to be 80.5% by SDSPAGE and Coomassie blue staining. Specific Activity of recombinant enzyme was measyre to be 1329 U/mg, where one unit of cdk1/cyclinB activity is defined as 1 nmol phosphate incorporated into 0.1 mg/ml histone H1 per minute at 30° C. with a final ATP concentration of […]. Enzyme was stored at concentration of 0.1 mg/ml in 50 mM Tris/HCl pH7.5, 150 mM NaCl, 0.1 mM EGTA, 0.03% Brij-35, 270 mM sucrose, 1 mM benzamidine, 0.2 mM PMSF, 0.1% 2-mercaptoethanol.

Method for CDK7/cyclinH1/MNAT1: Recombinant Human Full-Length protein, Histidine-tagged CDK7 (MW=43.2 kDa), Histidine-tagged cyclin H1 (MW=42.6 kDa), Histidine-tagged MNAT1 (MW=40.5 kDa), were expressed in insect cells.
For CDK activity assay, p33 ATP tracers were incubated with purified recombinant specific combination of purified CDK kinases, cyclins and substrates to monitor the enzyme activity. In these assays, individual reactions were carried out in specific conditions describe below with reaction buffer: 20 mM HEPES (pH 7.5), 10 mM MgCl2, 1 mM EGTA, 0.02% Brij 35, 0.02 mg/ml BSA, 0.1 mM Na3VO4, 2 mM DTT. […] Precipitated proteins were trapped onto glass fiber B filterplates and excess unlabeled p33 ATP was washed off. The plates were allowed to air-dry prior to the addition of 30 uL/well of Packard Microscint 20. The amount of incorporated isotope was measured using a Perkin Elmer TopCount plate reader. […] IC50 was calculated using Prism software with sigmoidal dose-response curve fitting.
100 nM CDK7/cyclinH1/MNAT1 and 20 μM Histon H1 were mixed in the reaction buffer with 1 μM ATP and 1% DMSO.

`CC(C)(C)c1cnc(CSc2cnc(NC(=O)Cc3ccc(OCCCC(=O)NO)cc3)s2)o1` [Compound 9, 4-(4-(2-(5-((5-tert-butyloxazol-2-yl)methylthio)thiazol-2-ylamino)-2-oxoethyl)phenoxy)-N-hydroxybutanamide]: the IC50 in the assay with HDAC is 100 to 1000 nM; against CDK3/cyclinE it was under 100 nM; at CDK4/cyclinD1, under 100 nM; on CDK6/cyclinD3 it was 100 to 1000 nM; against CDK7/cyclinH1/MNAT1 it was 100 to 1000 nM; at CDK1/cyclinB, under 100 nM.

As for `CC(C)(C)c1cnc(CSc2cnc(NC(=O)CCCCCCC(=O)NO)s2)o1` [Compound 8, N^1-(5-((5-tert-butyloxazol-2-yl)methylthio)thiazol-2-yl)-N^8-hydroxyoctanediamide], the IC50 with HDAC was under 100 nM; against CDK3/cyclinE, under 100 nM; against CDK4/cyclinD1 it was 100 to 1000 nM; on CDK6/cyclinD3, 100 to 1000 nM; on CDK7/cyclinH1/MNAT1, 100 to 1000 nM; against CDK1/cyclinB, under 100 nM.

On to `CC(C)(C)c1cnc(CSc2cnc(NC(=O)C3CCN(c4ncc(C(=O)NO)cn4)CC3)s2)o1` [Compound 20, 2-(4-(5-((5-tert-butyloxazol-2-yl)methylthio)thiazol-2-ylcarbamoyl)piperidin-1-yl)-N-hydroxypyrimidine-5-carboxamide], for which the IC50 in the assay with HDAC was under 100 nM; at CDK3/cyclinE, under 100 nM; at CDK4/cyclinD1, 100 to 1000 nM; at CDK6/cyclinD3 it was 1000 to 10000 nM; at CDK7/cyclinH1/MNAT1 it was 1000 to 10000 nM; against CDK1/cyclinB, under 100 nM.

Values taken from patent US8563741B2, “CDK inhibitors containing a zinc binding moiety” (Curis, Inc., priority 2007, dated 2013).
